Assay results taken from patent publication US4405717A, “Recovery of acetic acid from a fermentation broth” (priority 1981, dated 1983).
Like-named read-outs stand apart in the source and are kept apart here. Values belong to the compound of their own block, whether it stands above or below them.

Assays:
[1] = for dissolution of the amine: aqueous calcium acetate solution, carbon dioxide added
Description: In carrying out the process of this invention, a molar equivalent of a water-soluble tertiary amine carbonate is added to the calcium acetate solution. The tertiary amine carbonate used in the process can be generated by the addition of carbon dioxide to a solution or suspension of the tertiary amine in water. It is most convenient to generate the tertiary amine carbonate in situ by first adding a molar equivalent of the tertiary amine to the calcium acetate solution. Then carbon dioxide is added to the mixture to generate the tertiary amine carbonate directly in the calcium acetate solution. The addition of the carbon dioxide is carried out by any convenient means. Either solid or gaseous carbon dioxide is added to the solution at atmospheric pressure or at higher pressures in a pressure vessel.
To a solution of 20 g of acetic acid and 400 ml of water was added 16 g of calcium carbonate. […] To this was added 62 g of tributylamine.

[2] = Extraction of trialkylammonium acetates: distribution coefficient (KD) between water and solvents; assay type: physicochemical; conditions: conclusion from Table I
Description: In one embodiment of this invention, the trialkylammonium acetate is extracted from the solution by means of an organic solvent. Polar solvents, such as esters, alcohols, ketones, ethers or chlorinated hydrocarbons can be used. The solvents should be insoluble or sparingly soluble in water and be good extractants for the acetate. This extraction ability is determined by measuring the amount of acetic acid in each phase when an acetate solution is extracted with an equal volume of extractant. The extraction ability is expressed as a Distribution Coefficient (KD) which is defined by the formula: [formula] The solvent should have a KD greater than about 0.4 and preferably greater than about 1.
The efficiency with which trialkylammonium acetates could be extracted from water solutions with various solvents was measured by determination of the KD of the salts between water and the solvents according to the following procedure:
A mixture of 50 ml of a 5% aqueous solution of the acetate formed by the procedure of Example 1 and 50 ml of solvent in a 250-ml Erlenmeyer flask was shaken in a wrist-action shaker for 2 hours at room temperature. The mixture was transferred to a separatory funnel where it was allowed to stand for an additional hour before the phases were separated, weighed and analyzed. […]

[3] = Thermal decomposition (dissociation) of trialkylammonium acetates; assay type: physicochemical
Description: In the final step of the process, the trialkylammonium acetate is heated to cause dissociation of the acetate with liberation of acetic acid and the amine. The temperature at which the acetate decomposes depends somewhat on the tertiary amine used. When tributylamine is employed, the acetate decomposes when held in a bath in the range of about 170°-190° C. with distillation of the acetic acid in a relatively pure form. The residue after distillation of the acid is tributylamine which can be recycled for use in the extraction process.
The syrup obtained in Example 1 was placed in a flask fitted with a 7-cm Vigreux column attached to a water-cooled condenser. The flask was heated in an oil bath to 180° C. at which temperature decomposition of the acetate occurred. The yield of acetic acid distilling at 115°-118° C. was 18.3 g which represents a 91.5% recovery of the acetic acid present in the solution.
When the process of Example 2 was repeated with the syrups containing trimethylammonium acetate, triethylammonium acetate and tripropylammonium acetate, the products that were obtained were either azeotropes or mixtures of the tertiary amine and acetic acid.

SMILES: CN(C)c1ccncc1 [4-dimethylaminopyridine]
dissolution of the amine [1]: all of the amine went into solution

SMILES: CC(=O)O.CCCCN(CCCC)CCCC [Tributylammonium Acetate, tributylammonium acetate]
extraction from water with the solvents (in words) [2]: much more efficient than any of the other combinations
decomposition temperature of the acetate ([3]; heated in an oil bath, Example 2): 180 °C

SMILES: CN(C1CCCCC1)C1CCCCC1 [dicyclohexylmethylamine]
dissolution of the amine [1]: all of the amine went into solution

SMILES: CCCCCCCCCCCCN(C)C [dimethyldodecylamine, N,N-dimethyldodecylamine]
behaviour of the salt on distillation ([3]; salts prepared from long-chain amines): distillation was accompanied by unknown side-reactions

dissolution of the amine [1]: the amine did not dissolve
SMILES: CCCCCN(CCCCC)CCCCC [triamylamine]

SMILES: CCCCN(CCCC)CCCC [tributylamine]
dissolution of the amine ([1]; listed as Tributylamine): dissolves readily

dissolution of the amine [1]: the amine did not dissolve
SMILES: CCCCCCN(CCCCCC)CCCCCC [trihexylamine]
water solubility of the amine carbonate [1]: do not form carbonates which are sufficiently soluble in water

dissolution of the amine [1]: the amine did not dissolve
SMILES: CC(C)CCCCCN(CCCCCC(C)C)CCCCCC(C)C [triisooctylamine]

SMILES: CN(C)C [trimethylamine]
water solubility of the amine carbonate ([1]; general statement): form carbonates which are water soluble

SMILES: CCCCCCCCN(CCCCCCCC)CCCCCCCC [trioctylamine]
water solubility of the amine carbonate [1]: do not form carbonates which are sufficiently soluble in water

water solubility of the amine carbonate [1]: form carbonates which are water soluble
dissolution of the amine [1]: all of the amine went into solution
SMILES: CCCN(CCC)CCC [tripropylamine]
